From paper PMC12354831 (Cell Death Discovery, 2025)

How the values were obtained:
[1] = tested on: U87-MG cells; assay: CCK-8 IC50 determination in U87-MG cells with or without GLUT3 KD; assay type: cell-based, human; conditions: GLUT3 KD vs control, CCK-8, 24 h drug treatment
Procedure: (§1) The GBM cell line was seeded into a 96-well plate at a density of 5 × 10^3 cells per well and incubated at 37 °C in a humidified atmosphere containing 5% CO2 overnight. […] Following 24 h of drug treatment, 10 µL of CCK-8 reagent was added to each well, and the cells were incubated for an additional 1 h at 37 °C. The absorbance was then measured at 450 nm using a microplate reader.
(§2) In this study, the experimental groups were designated as Group A (cells treated with temozolomide (TMZ) or capecitabine (CAPE)), the control group as Group B (cells treated with DMSO), and the blank control group as Group C ([…]). The cell viability rate was calculated using the formula: (A-C)/(B-C) × 100%, where A, B, and C represent the absorbance values of Group A, Group B, and Group C, respectively.

[2] = tested on: U251-MG cells; assay: CCK-8 IC50 determination in U251-MG cells with or without GLUT3 OE; assay type: cell-based, human; conditions: GLUT3 OE vs control, CCK-8, 24 h drug treatment
Procedure: as §1, §2

## Nc1ccn([C@@H]2O[C@H](CO)[C@@H](O)[C@@H]2O)c(=O)n1 [cytarabine]
[1]
  fold increase of IC50 on GLUT3 knockdown: 4.3 fold

## Nc1ccn([C@@H]2O[C@H](CO)[C@@H](O)C2(F)F)c(=O)n1 [GEM, gemcitabine]
[1]
  fold increase of IC50 on GLUT3 knockdown: ~ 1.6 fold
[2]
  reduction of IC50 in GLUT3 overexpressing cells compared to control cells: ~ 81.7%
